In assay [1] the test system is PDX1424, PDX1444, and FG cells. In words: compilation of PDX or FG xenografts, AZD-0284. It counts as in vivo, human. The text has this: FIG. 45 is a compilation of all data from mice bearing PDX or FG cancer xenographs, including PDX1424, PDX1444, and FG.
For orientation: Xenograft models place foreign cells or tissue in a host animal.

Assay [2] relates to primary patient-derived organoids. The experiment in a line: primary patient-derived organoids, SR2211. It counts as cell-based, human. To be noted: following SR2211 treatment. As for the experimental part: Primary patient organoids were established and provided by Dr. Andrew Lowy. Briefly, patient-derived xenografts were digested for 1 hour at 37° C. in RPMI containing 2.5% FBS, 5 mg/ml Collagenase II, and 1.25 mg/ml Dispase II, then passaged through a […] mesh filter. Cells were plated at a density of 1.5×10^5 cells per 50 μl Matrigel. After domes were solidified, growth medium was added as follows: RPMI containing 50% Wnt3a conditioned media, 10% R-Spondinl-conditioned media, 2.5% FBS, 50 ng/ml EGF, 5 mg/ml Insulin, 12.5 ng/ml hydrocortisone, and 14 μM Rho Kinase Inhibitor. After establishment, organoids were passaged and maintained as previously described (Boj et al., 2015). Briefly, organoids were isolated using Cell Recovery Solution (Corning 354253), then dissociated into single cell suspensions with TrypLE Express (ThermoFisher 12604) supplemented with 25 μg/ml DNase I (Roche) and 14 μM Rho Kinase Inhibitor (Y-27632, Sigma). Cells were split 1:2 into 20 μl domes plated on pre-warmed 48 well plates. Domes were incubated at 37° C. for 5 min, then covered with human complete organoid feeding media (Boj et al., 2015) without Wnt3a-conditioned media. […] Organoids were grown in the presence of vehicle or SR2211 for 7 days, then imaged and quantified, n=3 independent wells plated per dose per treatment group. […] Organoids were counted and measured using ImageJ 1.51s software.

The subject of the next assay is human PDAC cells. In words: human PDAC (FG) flank tumors in immunocompromised mice. The class given is in vivo. To be noted: compared to vehicle-treatment. As for the experimental part:
Subcutaneous tumor dimensions were measured with calipers 1-2× weekly.

In another assay the test system is KP^f/fC cells. In words: pancreatic tumorsphere formation assay. To be noted: SR2211 vs vehicle. It counts as cell-based, mouse. As for the experimental part: Pancreatic tumorsphere formation assays were performed and modified from (Rovira et al., 2010). Briefly, low-passage (<6 passages) WT or REM2-KP^f/fC cell lines were infected with lentiviral particles containing shRNAs; positively infected (red) cells were sorted 72 hours after transduction. 100-300 infected cells were suspended in tumorsphere media: 100 μl DMEM F-12 (Gibco, Life Technologies) containing 1× B-27 supplement (Gibco, Life Technologies), 3% FBS, 100 μM B-mercaptoethanol (Gibco, Life Technologies), 1× non-essential amino acids (Gibco, Life Technologies), 1× N2 supplement (Gibco, Life Technologies), 20 ng/ml EGF (Gibco, Life Technologies), 20 ng/ml bFGF2 (Gibco, Life Technologies), and 10 ng/ml ESGRO mLIF (Thermo Fisher). Cells in media were plated in 96-well ultra-low adhesion culture plates (Costar) and incubated at 37° C. for 7 days. KP^f/fC in vitro tumorsphere formation studies were conducted at a minimum of n=3 independent wells per cell line across two independent shRNA of n=3 wells; however, the majority of these experiments were additionally completed in >1 independently-derived cell lines n=3, at n=3 wells per shRNA.

Where [3] appears, read: compilation of all data (FIG. 45).
[4] abbreviates: especially at 90 mg/kg AZD-0284 (FIG. 44).

In the case of `CC(=O)N1Cc2cc(S(C)(=O)=O)ccc2[C@@H]1C(=O)Nc1ccc(C(O)(C(F)(F)F)C(F)(F)F)cc1` [AZD-0284], in assay [1] (setting [3]), the “EpCam+ tumor epithelial cells” value is “decrease”, the “EpCam+/CD133+ tumor stem cells” value was “decrease” and the cell number entry is listed as “decrease”. In assay [1] (setting [4]), the “EpCam+ tumor epithelial cells” value is recorded as “reduced” and the “EpCam+/CD133+ tumor stem cells” value is on record as “reduced”.
Regarding `OC(c1ccc(-c2ccc(CN3CCN(Cc4ccncc4)CC3)cc2)c(F)c1)(C(F)(F)F)C(F)(F)F` [SR2211], the “reduction in total organoid volume” value in assay [2] is on record as roughly 300 fold. Also, the “reduction in tumor growth” value in the assay with human PDAC cells is roughly 6 fold. In addition, the sphere formation result with KP^f/fC cells is “decreased”.
